The results in this text go back to patent US4620871A (priority 1980, dated 1986).

This assay relates to maize leaves. Put plainly: Fixation of 14CO2 in maize leaves (Example 36). The note with it: 18 hours. The procedure:
The biological activities of cytokinin-like factors can be well characterized by measuring the intensity of the photosynthetic carbon dioxide fixation and the incorporation of labelled amino acids into the TCA-insoluble protein fraction. The intensity of photosynthetic carbon dioxide fixation was determined on maize leaves, utilizing ^14 CO2, whereas the incorporation of amino acids was examined on bean leaves, utilizing […]-^14 C.

On to `CCC[n+]1c[nH]c2ccccc21.[Br-]` [N--(n-Propyl)-benzimidazolium bromide, N-(n-propyl)-benzimidazolium bromide], for which the “Fixation of 14CO2” value (fresh weight, control 5.72) is reported as 10.52 μCi/g. In addition, the “Fixation of 14CO2, %” value (increase over control) is 84%.
